Source: US11135326B2, “Storage-stable aqueous solutions of chlorine dioxide and methods for preparing and using them” (CDG ENVIRONMENTAL, LLC, priority 2005, dated 2021)

Tests used:
[1] = cited from earlier work
[2] = Storage stability of aqueous chlorine dioxide solutions, concentration measured by amperometric titration
Excerpt: To determine the impact of various contaminants, the inventors set up a series of experiments to test the effect of the contaminants at various concentrations.
Pure water containing less than 1 ppm solid impurities was used to dissolve the chlorine dioxide gas and form the aqueous chlorine dioxide solutions at a concentration of 3000 ppm+/−5% chlorine dioxide as the initial starting concentration. The data in the figures is reported as % of starting concentration unless otherwise noted.
All data on concentration of aqueous solutions were measured by amperometric titration as described in EPA Standard Methods. Serial dilution was used to adjust to the range of the analytical device.
The accuracy of the analytical technique used is ±3%. Any variation of less than 3% is not considered significant.

Structure (SMILES): [O][Cl+][O-] [chlorine dioxide]
- minimum decomposition rate ([1]; pH of 4.85 to 3.90, U.S. 2002/0037248): 0.6 % per hour
- strength lost ([1]; within 24 hours, U.S. Pat. No. 7,229,647): 80-90%
- loss of concentration (in words) ([2]; 1500-6000 ppm of salt, even at room temperature, compared with about 100 ppm or less): much higher
- rate of deterioration (in words) ([2]; 3000 ppm, alkali metal salts at 100 ppm, 40° C.): deteriorate at a much higher rate
- lose % of their concentration ([2]; 3000 ppm, less than 10 ppm alkali metal salts, about 100 days, temperatures up to 40° C.): less than 10%
- shelf life (in words) ([2]; FIG. 2, 4500 ppm starting concentration, distilled water, amber glass bottles, 10° C. to about 40° C.): commercially acceptable shelf life
- retains % of its starting concentration ([2]; FIG. 2, pure chlorine dioxide at about 3000 ppmw in pure water, 40° C., more than 90 days): ≥ 90%
- stability in PET bottles (in words) ([2]; FIG. 4, distilled water, 750 mL biaxially oriented PET bottles, after an initial rapid rate of loss): almost as stable as that stored in glass
- stability (in words) ([2]; FIG. 5, 25° C. and up to 100 ppm NaCl): equally stable within the margin of error
- rate of deterioration (in words) ([2]; FIG. 5, 100 ppm Na+ and 40° C.): deteriorated at a markedly higher rate
- effect of manganese ions on storage stability (in words) ([2]; FIG. 10, 3000 ppm initial, small amounts of manganese ions (e.g., 10 ppm)): greatly diminish the storage stability
- shelf life of refrigerated solutions ([2]; refrigerated, inferred from FIG. 2 data): about a year or more
